From US11440923B2, “Substituted macrocyclic indole derivatives” (Bayer Aktiengesellschaft, priority 2017, dated 2022)
Structures can show the parent of a compound that is named as a salt. Where two headings read alike, the source gives them in different places. Each block holds one compound with its values, some of them ahead of it.

Experiments:
A2780 cells = assay: Antiproliferation assay A2780 (Assay 7); type: cell-based
Procedure: (§1) Assessment of the Anti-Proliferative Effect of Compounds in Different Cell Lines
(§2) The impact of compounds on the proliferation of different cell lines was assessed using the CellTiter-Glo® Luminescent Cell Viability reagent from Promega (G7573).
(§3) In parallel, cells were plated in a reference (day 0) plate for time zero determination. Cells were incubated in a humidified incubator at 37° C. overnight.
(§4) Rim wells were excluded. The cells were incubated for 72 h hours in a humidified incubator at 37° C. The day 0 plate was measured by adding 30 μL/well of CTG solution (CellTiter-Glo® Luminescent Cell Viability reagent, Promega G7573) to time zero wells in the reference plate followed by a 10 minutes incubation and luminescence reading at 0.1 ms. using the PHERAstar FS microplate reader (BMG Labtech).
(§5) After 72 h incubation, the treated plates were measured in the same way as the day 0 plate mentioned above. The Bella DRC Master Sheet was used to calculate IC50s, with CI=day 0 values and C0=DMSO control values.

MCL-1 = MCL-1 (Homo sapiens (Human), UniProt Q07820, K194A/K197A/R201A); assay: Protein-compound interaction assay (SPR assay, Assay 9); type: binding; conditions: for Kd: KD (geometric mean); for koff: read-out: koff (geometric mean), SPR, 25° C.; for kon: read-out: kon (geometric mean), SPR, 25° C.
Description: Assay 9 Protein-Compound Interaction Assay (SPR Assay)
The ability of the compounds described in this invention to bind to MCL-1 may be determined using surface plasmon resonance (SPR). This allows for the quantification of binding in terms of the equilibrium dissociation constant (KD [M]), as well as association and dissociation rate constants (kon [1/Ms] and koff [1/s], respectively). The measurements may be performed using Biacore® T200 or Biacore® S200 instruments (GE Healthcare).
Briefly, carboxymethylated dextran biosensor chips (Series S Sensor Chip CMS, GE Healthcare) were activated with 1-ethyl-3-(3-dimethylaminopropyl)-carbodiimide hydrochloride (EDC) and N-hydroxysuccinimide (NHS) according to the supplier's instructions. MBP-MCL-1 was diluted in 1×PBS-P+ (GE Healthcare) and injected on the activated chip surface. Subsequently, a solution of 1 M ethanolamine-HCl (GE Healthcare) was injected to block unreacted groups, resulting in approximately 400-2500 response units (RU) of immobilized protein. A reference surface was generated by treatment with NHS-EDC and ethanolamine-HCl. […] Compounds were injected for 60 s followed by a dissociation time of up to 1000 s.
The double-referenced sensorgrams were fit to a simple reversible Langmuir 1:1 reaction mechanism as implemented in the Biacore® T200 and S200 evaluation software (T200 evaluation software version 2.0 and S200 evaluation software version 1.0, GE Healthcare).

MV-4-11 cells = assay: Antiproliferation assay MV-4-11 (Assay 7); type: cell-based; conditions: read-out: Antiproli MV-4-11 IC50 median, CellTiter-Glo
Method in brief: (§6)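 Luminescent viability signal (CellTiter-Glo) after 72 h of treatment served as read-out. IC50 values were derived with day 0 luminescence as CI and DMSO wells as C0.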

SUDHL10 cells = assay: Antiproliferation assay SUDHL10 (Assay 7); type: cell-based; conditions: read-out: Antiproli SUDHL10 IC50 (median), 72 h, CellTiter-Glo
Procedure: as §1, §2, §3, §4, §5

SNU-389 cells = assay: Antiproliferation assay SNU-389 (Assay 7); type: cell-based; conditions: 72 h, read-out: Antiproli SNU-389 IC50
Method in brief: as §6

PA-1 cells = assay: Antiproliferation assay PA-1 (Assay 7); type: cell-based; conditions: Homo sapiens, read-out: Antiproli PA-1 IC50 median
Method in brief: as §6

SK-MEL-2 cells = assay: Antiproliferation assay SK-MEL-2 (Assay 7); type: cell-based; conditions: Homo sapiens, read-out: Antiproli SK-MEL-2 IC50 median
Method in brief: as §6

A-431 cells = assay: Antiproliferation assay A-431 (Assay 7); type: cell-based; conditions: Homo sapiens, read-out: Antiproli A-431 IC50 median
Method in brief: as §6

DMS-114 cells = assay: Antiproliferation assay DMS-114 (Assay 7); type: cell-based; conditions: Homo sapiens, read-out: Antiproli DM-S114 IC50 median
Method in brief: as §6

SNU-16 cells = assay: Antiproliferation assay SNU-16 (Assay 7); type: cell-based; conditions: Homo sapiens, read-out: Antiproli SNU-16 IC50 median
Method in brief: as §6

SK-BR-3 cells = assay: Antiproliferation assay SK-BR-3 (Assay 7); type: cell-based; conditions: Homo sapiens, SK-BR-3; 72 h, CellTiter-Glo; read-out: Antiproli SK-BR-3 IC50 median
Procedure: as §1, §2, §3, §4, §5

[1] = Homo sapiens, A2780, 72 h, read-out: Antiproli A2780 IC50 median, 72 h, CellTiter-Glo
[2] = Homo sapiens, A2780, 72 h, CellTiter-Glo, read-out: Antiproli A2780 IC50 median
[3] = DMS-114 cells, 72 h, CellTiter-Glo

Chain of MCL-1 (Q07820 whole entry K194A/K197A/R201A, looked up): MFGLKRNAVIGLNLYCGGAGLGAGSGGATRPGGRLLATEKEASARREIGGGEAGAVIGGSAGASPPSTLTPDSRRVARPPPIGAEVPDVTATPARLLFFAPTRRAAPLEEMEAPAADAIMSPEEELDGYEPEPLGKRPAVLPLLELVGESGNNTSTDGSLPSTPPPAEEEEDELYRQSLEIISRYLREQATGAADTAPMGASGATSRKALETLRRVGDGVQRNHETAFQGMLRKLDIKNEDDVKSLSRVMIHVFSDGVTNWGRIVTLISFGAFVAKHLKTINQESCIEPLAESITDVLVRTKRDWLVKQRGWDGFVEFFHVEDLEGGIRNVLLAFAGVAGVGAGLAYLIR

Structure (SMILES): CCc1c2c(nn1C)C(CCN1CCOCC1)OCCCCn1c(C(=O)O)c(CCCOc3cccc4ccccc34)c3ccc(F)c-2c31 (single isomer, unassigned; enantiomer 1) [Example 11, 3-ethyl-4-fluoro-2-methyl-15-[2-(morpholin-4-yl)ethyl]-7-{3-[(naphthalen-1-yl)oxy]propyl}-2,10,11,12,13,15-hexahydropyrazolo[4′,3′:9,10][1,6]oxazacycloundecino[8,7,6-hi]indole-8-carboxylic Acid—N-ethylethanamine Salt (Enantiomer 1)]
IC50 (A2780 cells; [1]): 0.779 µM
Kd (MCL-1; SPR, 25° C.): 0.61 nM
kon (geometric mean) (MCL-1; SPR, 25° C.): 6.2 E6 1/M 1/s
koff (MCL-1): 0.0038 s⁻¹
IC50 (MV-4-11 cells; 72 h): 144 nM

Structure (SMILES): CCc1c2c(nn1C)C(CCN1CCOCC1)OCCCCn1c(C(=O)O)c(CCCOc3cccc4ccccc34)c3ccc(F)c-2c31 (racemic) [Example 10, (rac)-3-ethyl-4-fluoro-2-methyl-15-[2-(morpholin-4-yl)ethyl]-7-[3-(naphthalen-1-yloxy)propyl]-2,10,11,12,13,15-hexahydropyrazolo[4′,3′:9,10][1,6]oxazacycloundecino[8,7,6-hi]indole-8-carboxylic Acid]
IC50 (A2780 cells; [2]): 3.43 µM
Kd (MCL-1; SPR, 25° C.): 1.1 nM
koff (MCL-1): 0.01 s⁻¹
kon (MCL-1): 9e+06 M⁻¹ s⁻¹
IC50 (SUDHL10 cells; Homo sapiens, SU-DHL10): 140 nM
IC50 (MV-4-11 cells; Homo sapiens, MV4-11, 72 h): 110 nM

Structure (SMILES): CCc1c2c(nn1C)C(CCC1CCOCC1)OCCCCn1c(C(=O)O)c(CCCOc3cccc4cc(F)ccc34)c3ccc(Cl)c-2c31 (single isomer, unassigned; enantiomer 1) [Example 63, (+)-4-chloro-3-ethyl-7-{3-[(6-fluoronaphthalen-1-yl)oxy]propyl}-2-methyl-15-[2-(oxan-4-yl)ethyl]-2,10,11,12,13,15-hexahydropyrazolo[4′,3′:9,10][1,6]oxazacycloundecino[8,7,6-hi]indole-8-carboxylic Acid—N-ethylethanamine Salt (Enantiomer 1)]
Kd (MCL-1; SPR, 25° C.): 1.4 nM
koff (MCL-1): 0.0016 s⁻¹
kon (MCL-1): 1.1e+06 M⁻¹ s⁻¹
IC50 (SNU-389 cells): 183 nM
IC50 (PA-1 cells; PA-1, 72 h): 204 nM
IC50 (SK-MEL-2 cells; SK-MEL-2, 72 h): 324 nM
IC50 (A-431 cells; A-431, 72 h): 272 nM
IC50 (DMS-114 cells; DMS-114, 72 h): 156 nM
IC50 (SNU-16 cells; SNU-16, 72 h): 276 nM

Structure (SMILES): Cc1c2c(nn1C)C(CCN1CCOCC1)OCCCCn1c(C(=O)O)c(CCCOc3cccc4cc(F)ccc34)c3ccc(Cl)c-2c31 (racemic) [Example 16, (rac)-4-chloro-7-{3-[(6-fluoronaphthalen-1-yl)oxy]propyl}-2,3-dimethyl-15-[2-(morpholin-4-yl)ethyl]-2,10,11,12,13,15-hexahydropyrazolo[4′,3′:9,10][1,6]oxazacycloundecino[8,7,6-hi]indole-8-carboxylic Acid]
IC50 (SNU-389 cells; CellTiter-Glo): 118 nM
IC50 (SK-BR-3 cells): 108 nM
IC50 (MV-4-11 cells; Homo sapiens, MV4-11, 72 h): 34.6 nM

Structure (SMILES): Cc1c2c(nn1C)C(C)OCCCCn1c(C(=O)O)c(CCCOc3cccc4ccccc34)c3cccc-2c31 (racemic) [Example 1, (rac)-2,3,15-trimethyl-7-[3-(naphthalen-1-yloxy)propyl]-2,10,11,12,13,15-hexahydropyrazolo[4′,3′:9,10][1,6]oxazacycloundecino[8,7,6-hi]indole-8-carboxylic Acid (Mixture of Stereoisomers)]
IC50 (A2780 cells; [2]): 19.5 µM
IC50 (SUDHL10 cells; Homo sapiens, SU-DHL10): 7000 nM

Further lines, with some results ahead:

IC50 (A2780 cells; [1]): 29.9 µM
IC50 (SUDHL10 cells): 7000 nM
Structure (SMILES): Cc1c2c(nn1C)C(C)OCCCCn1c(C(=O)O)c(CCCOc3cccc4ccccc34)c3cccc-2c31 (single isomer, unassigned; stereoisomer 2) [Example 3, 2,3,15-trimethyl-7-[3-(naphthalen-1-yloxy)propyl]-2,10,11,12,13,15-hexahydropyrazolo[4′,3′:9,10][1,6]oxazacycloundecino[8,7,6-hi]indole-8-carboxylic Acid Trifluoroacetic Acid Salt (Stereoisomer 2)]

Kd (MCL-1; SPR, 25° C.): 0.33 nM
koff (MCL-1): 0.0012 s⁻¹
kon (MCL-1): 3.5e+06 M⁻¹ s⁻¹
IC50 (SNU-389 cells; CellTiter-Glo): 151 nM
IC50 (SK-MEL-2 cells; SK-MEL-2, 72 h, CellTiter-Glo): 197 nM
IC50 (A-431 cells; A-431, 72 h, CellTiter-Glo): 126 nM
IC50 (SNU-16 cells; SNU-16, 72 h, CellTiter-Glo): 130 nM
Structure (SMILES): CCc1c2c(nn1C)C(CCN1CC(F)(F)C1)OCCCCn1c(C(=O)O)c(CCCOc3cccc4cc(F)ccc34)c3ccc(Cl)c-2c31 (single isomer, unassigned; (+)) [Example 78, (+)-4-chloro-15-[2-(3,3-difluoroazetidin-1-yl)ethyl]-3-ethyl-7-{3-[(6-fluoronaphthalen-1-yl)oxy]propyl}-2-methyl-2,10,11,12,13,15-hexahydropyrazolo[4′,3′:9,10][1,6]oxazacycloundecino[8,7,6-hi]indole-8-carboxylic Acid—N-ethylethanamine Salt]
IC50 (PA-1 cells; PA-1, 72 h, CellTiter-Glo): 127 nM
IC50 (DMS-114 cells; [3]): 88.5 nM

Kd (MCL-1; SPR, 25° C.): 0.24 nM
koff (MCL-1): 0.0022 s⁻¹
kon (MCL-1): 9e+06 M⁻¹ s⁻¹
IC50 (SNU-389 cells; CellTiter-Glo): 133 nM
IC50 (SK-MEL-2 cells; SK-MEL-2, 72 h, CellTiter-Glo): 170 nM
IC50 (A-431 cells; A-431, 72 h, CellTiter-Glo): 135 nM
IC50 (SNU-16 cells; SNU-16, 72 h, CellTiter-Glo): 152 nM
Structure (SMILES): CCc1c2c(nn1C)C(CCC(C)(C)O)OCCCCn1c(C(=O)O)c(CCCOc3cccc4cc(F)ccc34)c3ccc(Cl)c-2c31 (single isomer, unassigned; enantiomer 1) [Example 75, (+)-4-chloro-3-ethyl-7-{3-[(6-fluoronaphthalen-1-yl)oxy]propyl}-15-(3-hydroxy-3-methylbutyl)-2-methyl-2,10,11,12,13,15-hexahydropyrazolo[4′,3′:9,10][1,6]oxazacycloundecino[8,7,6-hi]indole-8-carboxylic Acid—N-ethylethanamine Salt (Enantiomer 1)]
IC50 (PA-1 cells; PA-1, 72 h, CellTiter-Glo): 118 nM
IC50 (DMS-114 cells; [3]): 77.4 nM

IC50 (SUDHL10 cells; Homo sapiens, SU-DHL10): 160 nM
Structure (SMILES): Cc1c2c(nn1C)C(CCN1CCOCC1)OCCCCn1c(C(=O)O)c(CCCOc3cccc4ccccc34)c3ccc(F)c-2c31 (racemic) [Example 7, (rac)-4-fluoro-2,3-dimethyl-15-[2-(morpholin-4-yl)ethyl]-7-[3-(naphthalen-1-yloxy)propyl]-2,10,11,12,13,15-hexahydropyrazolo[4′,3′:9,10][1,6]oxazacycloundecino[8,7,6-hi]indole-8-carboxylic Acid]

IC50 (A2780 cells; read-out: Antiproli A2780 IC50 median, 72 h, CellTiter-Glo, listed as 02): 22.8 µM
Kd (MCL-1; SPR, 25° C.): 11 nM
koff (MCL-1): 0.067 s⁻¹
kon (MCL-1): 5.9e+06 M⁻¹ s⁻¹
IC50 (SUDHL10 cells): 2900 nM
Structure (SMILES): Cc1c2c(nn1C)C(C)OCCCCn1c(C(=O)O)c(CCCOc3cccc4ccccc34)c3cccc-2c31 (single isomer, unassigned; stereoisomer 1) [Example 2, 2,3,15-trimethyl-7-[3-(naphthalen-1-yloxy)propyl]-2,10,11,12,13,15-hexahydropyrazolo[4′,3′:9,10][1,6]oxazacycloundecino[8,7,6-hi]indole-8-carboxylic Acid Trifluoroacetic Acid Salt (Stereoisomer 1)]
